What was measured:
[1] = test system: A. niger 16404; assay: In vitro antifungal activity, MIC (modified Autotiter method); type: cell-based, Aspergillus niger; details: 18-20 hours at 37° C.; for MIC: Aspergillus niger, 16404, 20 h, read-out: MIC A. niger 16404
Outline: (§1)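 MIC by modified Autotiter twofold broth dilution from a 1,000 mcg./ml. compound solution in inoculated semisynthetic glucose medium. Final drug concentrations ranged from 500 to 0.06 mcg./ml.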

[2] = test system: Herpes simplex type 2 virus; assay: Virucidal activity in vitro (plaque inhibition test); type: cell-based; details: 2 mg. of test compound on growth medium
Experimental: Virucidal activity of representative examples against Herpes simplex type 2 virus was determined in vitro employing a procedure similar to the plaque inhibition test for detection of specific inhibitors of DNA-containing viruses published by E. C. Herrmann, Jr., Proc. Soc. Exp. Biol. Med. 107, 142 (1961) wherein 2 mg. of the test compound was placed on the surface of the growth medium.

[3] = test system: T. menta. 9129; assay: In vitro antifungal activity, MIC (modified Autotiter method); type: cell-based, Trichophyton mentagrophytes; details: Trichophyton mentagrophytes, 20 h, 18-20 hours at 37° C.; read-out: MIC T. menta. 9129
Outline: as §1

[4] = test system: S. pyogen. C203; assay: In vitro antibacterial activity, MIC (modified Autotiter method); type: cell-based, Streptococcus pyogenes; details: 18-20 hours at 37° C.; for MIC: Streptococcus pyogenes, 20 h, read-out: MIC S. pyogen. C203
Outline: as §1

[5] = test system: S. Aureus Smith; assay: as above; type: cell-based, Staphylococcus aureus; details: Staphylococcus aureus, 20 h, 18-20 hours at 37° C.; read-out: MIC S. Aureus Smith
Outline: as §1

[6] = test system: K. pneum. 39645; assay: as above; type: cell-based, Klebsiella pneumoniae; details: Klebsiella pneumoniae, 20 h, 18-20 hours at 37° C.; read-out: MIC K. pneum. 39645
Outline: as §1

[7] = test system: C. albicans 10231; assay: In vitro antifungal activity, MIC (modified Autotiter method); type: cell-based, Candida albicans; details: Candida albicans, 10231, 20 h, 18-20 hours at 37° C.; read-out: MIC C. albicans 10231
Outline: as §1

[8] = test system: C. albicans Wisc.; assay: as above; type: cell-based, Candida albicans; details: Candida albicans, 20 h, 18-20 hours at 37° C.; read-out: MIC C. albicans Wisc.
Outline: as §1

[9] = test system: E. coli 100/B22; assay: In vitro antibacterial activity, MIC (modified Autotiter method); type: cell-based, Escherichia coli; details: Escherichia coli, 100/B22, 20 h, 18-20 hours at 37° C.; read-out: MIC E. coli 100/B22
Outline: as §1

[10] = test system: E. coli Vogel; assay: as above; type: cell-based, Escherichia coli; details: Escherichia coli, 20 h, 18-20 hours at 37° C.; read-out: MIC E. coli Vogel
Outline: as §1

[11] = test system: E. coli AB1932-1; assay: as above; type: cell-based, Escherichia coli; details: Escherichia coli, AB19321, 20 h, 18-20 hours at 37° C.; read-out: MIC E. coli AB1932-1
Outline: as §1

[12] = test system: Ps. aerug. MGH-2; assay: as above; type: cell-based, Pseudomonas aeruginosa; details: Pseudomonas aeruginosa, 20 h, 18-20 hours at 37° C.; read-out: MIC Ps. aerug. MGH-2
Outline: as §1

[13] = test system: P. mirab. MGH-1; assay: as above; type: cell-based, Proteus mirabilis; details: Proteus mirabilis, 20 h, 18-20 hours at 37° C.; read-out: MIC P. mirab. MGH-1
Outline: as §1

Row | Structure (SMILES) | MIC [1] [µg/mL] | Virucidal activity against Herpes simplex type 2 virus [2] | MIC [3] [µg/mL] | MIC [4] [µg/mL] | MIC [5] [µg/mL] | MIC [6] [µg/mL] | MIC [7] [µg/mL] | MIC [8] [µg/mL] | MIC [9] [µg/mL] | MIC [10] [µg/mL] | MIC [11] [µg/mL] | MIC [12] [µg/mL] | MIC [13] [µg/mL] | MIC A. niger 16404 [1] [µg/mL] | MIC S. pyogen. C203 [4] [µg/mL]
1 | CCCCCCCNc1cc[n+](CCCCC[n+]2ccc(NCCCCCCC)cc2)cc1 [Example 60, 1,5-bis-[4-(heptylamino)-1-pyridinium]pentane dibromide] | 15.6 | active | 7.8 | 1.95 | 0.49 | 31.3 | 15.6 | 15.6 | 7.8 | 31.3 | 3.9 | 125 | > 125 | – | –
2 | Clc1ccc(Nc2cc[n+](CCCCCCCCC[n+]3ccc(Nc4ccc(Cl)cc4)cc3)cc2)cc1 [Example 82, 1,9-bis-[4-(p-chlorophenylamino)-1-pyridinium]nonane dibromide] | 15.6 | active | 3.9 | 0.24 | 0.625 | 7.8 | 3.9 | 3.9 | 1.95 | 0.98 | 0.98 | 125 | > 125 | – | –
3 | CCCCC(CC)CNc1cc[n+](CCCCC[n+]2ccc(NCC(CC)CCCC)cc2)cc1 (centres unmarked) [Example 53, 1,5-bis-[4-(2-ethylhexylamino)-1-pyridinium]pentane dibromide] | 31.3 | active | 7.8 | 0.625 | 0.49 | > 125 | 31.3 | 15.6 | 15.6 | 15.6 | 7.8 | 125 | > 125 | – | –
4 | CCCCCCNc1cc[n+](CCCCCC[n+]2ccc(NCCCCCC)cc2)cc1 [Example 17, 1,6-bis-[4-(hexylamino)-1-pyridinium]-hexane dibromide] | 7.8 | active | – | > 250 | 0.49 | 125 | 15.6 | 15.6 | 0.78 | 31.3 | 7.8 | > 125 | > 250 | – | –
5 | c1c[n+](CCCCCCCCCC[n+]2ccc(NC3CCCCC3)cc2)ccc1NC1CCCCC1 [Example 40, 1,10-bis-[4-(cyclohexylamino)-1-pyridinium]decane dibromide] | 7.8 | inactive | 1.95 | 3.9 | 0.24 | > 125 | 3.9 | 7.8 | 15.6 | 15.6 | 7.8 | > 125 | > 125 | – | –
6 | c1c[n+](CCCCCC[n+]2ccc(NC3CCCCC3)cc2)ccc1NC1CCCCC1 [Example 36, 1,6-bis-[4-(cyclohexylamino)-1-pyridinium]hexane dibromide] | 125 | active | 15.6 | 15.6 | 15.6 | > 125 | 125 | 125 | > 125 | > 125 | 125 | > 125 | > 125 | – | –
7 | CCCCCCCNc1cc[n+](CCCCCCC[n+]2ccc(NCCCCCCC)cc2)cc1 [Example 21, 1,7-bis-[4-(heptylamino)-1-pyridinium]heptane dibromide] | 15.6 | active | 3.9 | 0.98 | 0.24 | 3.9 | 3.9 | 3.9 | 1.95 | 1.95 | 1.95 | 125 | 125 | – | –
8 | Clc1ccc(Nc2cc[n+](CCCCCCC[n+]3ccc(Nc4ccc(Cl)cc4)cc3)cc2)cc1 [Example 81, 1,7-bis-[4-(p-chlorophenylamino)-1-pyridinium]heptane dibromide] | 31.3 | active | 7.8 | 0.49 | 0.98 | > 125 | 31.3 | 31.3 | 3.9 | 3.9 | 125 | > 125 | > 125 | – | –
9 | CCCCC(CC)CNc1cc[n+](CCCCCCC[n+]2ccc(NCC(CC)CCCC)cc2)cc1 (centres unmarked) [Example 55, 1,7-bis-[4-(2-ethylhexylamino)-1-pyridinium]heptane dibromide] | 15.6 | active | 1.95 | 0.49 | 0.49 | 7.8 | 7.8 | 7.8 | 3.9 | 3.9 | 3.9 | 125 | > 125 | – | –
10 | c1c[n+](CCCCCCC[n+]2ccc(NC3CCCCC3)cc2)ccc1NC1CCCCC1 [Example 37, 1,7-bis-[4-(cyclohexylamino)-1-pyridinium]heptane dibromide] | > 125 | active | 15.6 | 7.8 | 7.8 | > 125 | 125 | 125 | > 125 | > 125 | 125 | 125 | > 125 | – | –
11 | CCCCCCCNc1cc[n+](CCCCCC[n+]2ccc(NCCCCCCC)cc2)cc1 [Example 61, 1,6-bis-[4-(heptylamino)-1-pyridinium]hexane dibromide] | – | active | 3.13 | – | 0.2 | 6.3 | 6.25 | 6.25 | 1.6 | 3.1 | 1.6 | 125 | > 250 | 25 | 0.4
12 | CCCCCCNc1cc[n+](CCCC[n+]2ccc(NCCCCCC)cc2)cc1 [Example 16, 1,4-bis-[4-(hexylamino)-1-pyridinium]butane dibromide] | 125 | inactive | 15.6 | 1.95 | 7.8 | > 125 | 125 | 125 | 125 | 125 | 62.5 | > 250 | > 125 | – | –
13 | c1c[n+](CCCC[n+]2ccc(NC3CCCCC3)cc2)ccc1NC1CCCCC1 [Example 34, 1,4-bis-[4-(cyclohexylamino)-1-pyridinium]butane dibromide] | 500 | inactive | 125 | 31.3 | 125 | > 500 | 500 | 500 | 125 | 125 | 125 | > 500 | > 500 | – | –
14 | CCCCC(CC)CNc1cc[n+](CCCC[n+]2ccc(NCC(CC)CCCC)cc2)cc1 (centres unmarked) [Example 63, 1,4-bis-[4-(2-ethylhexylamino)-1-pyridinium]butane dibromide] | 31.3 | active | 15.6 | 1.25 | 0.98 | > 125 | 31.3 | 31.3 | 31.3 | 62.5 | 7.8 | 125 | > 125 | – | –
15 | c1c[n+](CCCCC[n+]2ccc(NC3CCCCC3)cc2)ccc1NC1CCCCC1 [Example 35, 1,5-bis-[4-(cyclohexylamino)-1-pyridinium]pentane dibromide] | 500 | active | 125 | 15.6 | 125 | > 500 | 500 | 500 | > 500 | > 500 | > 500 | > 500 | > 500 | – | –
